Tests used:
[1] = system: methane production in rumen liquor; assay: In vitro test for methane production (modified Hohenheim Forage value Test, HFT); format: cell-based; details: TMR feed, 8 h at 39° C., average of four to eight experiments
Experimental: In vitro test for methane production: A modified version of the “Hohenheim Forage value Test (HFT)” was used for testing the effect of specific compounds on the rumen functions mimicked by this in-vitro system.
Principle: Feed is gadded into a syringe with a composition of rumen liquor and an appropriate mixture of buffers. The solution is incubated at 39° C. After 8 hours the quantity (and composition) of gas phase produced is measured and put into a formula for conversion.
Sample weighing: The feed stuff (i.e. TMR (44% concentrate, 6% hay, 37% maize silage and 13% grass silage) is sieved to 1 mm and weighed exactly into 64 syringes. 4 of these syringes are the substrate controls, which display the gas production without the effect of the tested compounds. 4 other syringes are positive control (3-NOP, 10 µM). When needed, 4 syringes contain a carrier control (if the test compounds need a carrier). The remaining syringes contain the test substances, by groups of 4 syringes, in the amounts as indicated in table 1.
Extraction of the rumen liquor: 750 ml of rumen liquor are added to approximately 1,400 ml of medium solution under continued agitation and CO2-gassing.
Filling the syringes, incubation and determining gas volumes and VFA values: The diluted rumen fluid (24 ml) is added to the glass syringe. The syringes are then incubated for 8 hours at 39° C. under gentle agitation. After 8 hours, the volume of gas produced is measured, and the percentage of methane in the gas phase is determined by gas chromatography.
The food fermented was artificial TMR (44% concentrate, 6% hay, 37% maize silage and 13% grass silage). Gossypol was obtained from Sigma-Aldrich (G8761), and used at a concentration as outlined in table 1.3-Nitrooxy-propanol (3-NOP) was used at the concentration as outlined in table 1. The respective in vitro data was linked to dosage regimes correlating to the same methane reduction in vivo.

[2] = system: methane production in ruminants; details: reported in WO2012/084629; cited from earlier work

SMILES	Total methane change, found ([1]; single substance at 5 μM) [% vs. control]	Total methane change, found ([1]; single substance at 10 μM) [% vs. control]	Total methane change, found ([1]; single substance at 20 μM) [% vs. control]	Total methane change, found ([1]; single substance at 100 μM) [% vs. control]	Total methane change, found ([1]; single substance at 2.5 μM) [% vs. control]	Reduction of methane production in ruminants (in words) [2]
Cc1cc2c(C(C)C)c(O)c(O)c(C=O)c2c(O)c1-c1c(C)cc2c(C(C)C)c(O)c(O)c(C=O)c2c1O [G, Gossypol]	−1	−11	−15	−69	–	–
O=[N+]([O-])OCCCO [3-NOP, 3-Nitrooxypropanol]	−54	−98	–	–	−12	significantly reduce the methane production

From patent publication US20240207203A1, “NOVEL USE” (DSM IP Assets B.V., priority 2021, published 2024)
